Laboratory results published in PMC7005530, “A selective androgen receptor modulator SARM‐2f activates androgen receptor, increases lean body mass, and suppresses blood lipid levels in cynomolgus monkeys” (Pharmacology Research & Perspectives, 2020).

Tests used:
cynomolgus monkey AR = molecular target: T1, cynomolgus monkey AR (Macaca fascicularis, UniProt O97952); assay: AR reporter assay (MMTV-luc) in COS7 cells expressing monkey AR; format: cell-based
T1 construct: expressed in transfected cells; host or cells: COS7
T1 sequence (O97952 1-895): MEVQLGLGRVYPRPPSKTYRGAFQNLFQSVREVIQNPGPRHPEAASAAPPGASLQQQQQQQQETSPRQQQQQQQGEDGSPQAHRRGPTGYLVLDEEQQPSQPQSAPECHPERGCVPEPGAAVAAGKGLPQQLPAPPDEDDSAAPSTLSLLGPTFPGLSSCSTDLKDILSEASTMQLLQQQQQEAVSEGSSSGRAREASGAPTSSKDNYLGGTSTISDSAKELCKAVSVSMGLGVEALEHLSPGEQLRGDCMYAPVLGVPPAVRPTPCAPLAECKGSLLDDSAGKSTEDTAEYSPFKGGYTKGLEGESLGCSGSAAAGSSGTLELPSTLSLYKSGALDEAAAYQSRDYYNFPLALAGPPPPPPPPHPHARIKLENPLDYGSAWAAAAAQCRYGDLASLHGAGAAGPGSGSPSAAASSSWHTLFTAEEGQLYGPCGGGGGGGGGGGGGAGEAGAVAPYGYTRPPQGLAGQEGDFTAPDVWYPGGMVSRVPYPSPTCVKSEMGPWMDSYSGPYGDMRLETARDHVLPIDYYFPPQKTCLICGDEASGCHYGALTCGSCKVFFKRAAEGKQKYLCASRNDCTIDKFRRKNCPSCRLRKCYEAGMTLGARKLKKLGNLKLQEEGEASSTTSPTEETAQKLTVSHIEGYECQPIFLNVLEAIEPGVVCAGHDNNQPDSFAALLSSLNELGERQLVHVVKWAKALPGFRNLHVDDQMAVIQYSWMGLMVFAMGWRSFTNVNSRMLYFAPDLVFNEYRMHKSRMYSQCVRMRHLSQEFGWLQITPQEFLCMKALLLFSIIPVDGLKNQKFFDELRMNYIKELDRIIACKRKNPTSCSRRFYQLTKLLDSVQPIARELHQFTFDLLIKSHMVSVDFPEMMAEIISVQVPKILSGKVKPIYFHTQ
Protocol: (§1) Two hours post‐transfection, the cells were plated in 96‐well plates at a density of 2 × 10^4 cells/well, and cultured at 37°C for 3 hours. […] Luciferase activity was measured using the Steady‐Glo Luciferase assay system (Promega) and an Envision Multimode Plate Reader (PerkinElmer).
(§2) In the reporter assays, EC50 was calculated using Graph Pad Prism version 6. The effects of SARM‐2f or TE on BW and LBM were analyzed by t test, with Bonferroni correction for repeated measurements.

human AR = molecular target: T2, human AR (Homo sapiens, UniProt P10275); assay: AR reporter assay (MMTV-luc) in COS7 cells expressing human AR; format: cell-based; set-up: Emax: dose or concentration left out as unconfirmed; conditions: COS-7, read-out: maximal activation level
T2 construct: expressed in transfected cells; host or cells: COS7
T2 sequence (P10275 1-920): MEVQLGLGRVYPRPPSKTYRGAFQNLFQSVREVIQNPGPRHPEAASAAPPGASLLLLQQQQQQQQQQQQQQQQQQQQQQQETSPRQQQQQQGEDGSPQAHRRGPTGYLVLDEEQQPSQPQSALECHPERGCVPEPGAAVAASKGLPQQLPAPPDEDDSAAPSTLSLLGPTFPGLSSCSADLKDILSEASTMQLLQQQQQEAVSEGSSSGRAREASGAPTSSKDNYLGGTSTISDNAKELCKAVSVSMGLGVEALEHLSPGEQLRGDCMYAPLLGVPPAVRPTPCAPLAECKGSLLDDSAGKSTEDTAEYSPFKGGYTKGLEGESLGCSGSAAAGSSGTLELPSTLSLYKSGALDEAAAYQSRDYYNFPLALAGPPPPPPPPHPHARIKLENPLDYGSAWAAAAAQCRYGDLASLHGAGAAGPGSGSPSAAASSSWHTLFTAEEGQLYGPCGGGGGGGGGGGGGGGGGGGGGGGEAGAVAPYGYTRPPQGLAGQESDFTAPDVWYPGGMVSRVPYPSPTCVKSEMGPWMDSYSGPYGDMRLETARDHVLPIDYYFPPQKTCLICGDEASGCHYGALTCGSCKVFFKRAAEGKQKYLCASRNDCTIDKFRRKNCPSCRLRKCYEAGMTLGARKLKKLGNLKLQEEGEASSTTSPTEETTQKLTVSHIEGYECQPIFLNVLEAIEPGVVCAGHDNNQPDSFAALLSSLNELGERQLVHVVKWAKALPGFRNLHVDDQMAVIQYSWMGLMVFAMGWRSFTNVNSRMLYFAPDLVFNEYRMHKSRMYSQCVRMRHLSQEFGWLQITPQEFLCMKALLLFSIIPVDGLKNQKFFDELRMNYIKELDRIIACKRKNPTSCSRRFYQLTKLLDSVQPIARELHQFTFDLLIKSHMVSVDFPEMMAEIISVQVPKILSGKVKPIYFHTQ
Protocol: as §1, §2

rat AR = molecular target: T3, rat AR (Rattus norvegicus, UniProt P15207); assay: AR reporter assay (MMTV-luc) in COS7 cells expressing rat AR; format: cell-based; set-up: Emax: dose or concentration left out as unconfirmed
T3 construct: expressed in transfected cells; host or cells: COS7
T3 sequence (P15207 1-902): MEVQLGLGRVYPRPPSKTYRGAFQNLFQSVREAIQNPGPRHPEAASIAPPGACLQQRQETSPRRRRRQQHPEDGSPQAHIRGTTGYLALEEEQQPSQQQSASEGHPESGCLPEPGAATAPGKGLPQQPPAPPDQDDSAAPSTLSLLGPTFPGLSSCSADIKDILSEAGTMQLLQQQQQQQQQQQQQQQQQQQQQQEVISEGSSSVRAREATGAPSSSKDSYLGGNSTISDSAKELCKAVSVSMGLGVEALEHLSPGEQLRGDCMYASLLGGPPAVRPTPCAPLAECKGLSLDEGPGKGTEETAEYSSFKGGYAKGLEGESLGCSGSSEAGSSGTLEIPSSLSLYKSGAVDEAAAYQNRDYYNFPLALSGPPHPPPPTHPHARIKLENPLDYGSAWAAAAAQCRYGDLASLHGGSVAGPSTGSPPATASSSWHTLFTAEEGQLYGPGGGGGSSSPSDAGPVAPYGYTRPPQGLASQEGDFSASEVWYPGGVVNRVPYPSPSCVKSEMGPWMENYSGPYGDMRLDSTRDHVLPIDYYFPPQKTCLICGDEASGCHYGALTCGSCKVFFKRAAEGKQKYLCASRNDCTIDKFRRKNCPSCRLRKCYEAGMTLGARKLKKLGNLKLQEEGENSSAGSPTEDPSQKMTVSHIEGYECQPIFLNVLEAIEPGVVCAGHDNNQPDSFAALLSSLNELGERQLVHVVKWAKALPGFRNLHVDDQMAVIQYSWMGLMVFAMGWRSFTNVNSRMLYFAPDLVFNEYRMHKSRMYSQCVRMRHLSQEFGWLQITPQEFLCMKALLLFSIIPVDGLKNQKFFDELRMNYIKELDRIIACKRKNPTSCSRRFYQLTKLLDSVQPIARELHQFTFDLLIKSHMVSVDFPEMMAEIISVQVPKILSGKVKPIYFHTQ
Protocol: as §1, §2

[1] = Liver function tests (AST, ALT) after 4-week treatment; format: in vivo, cynomolgus monkey; conditions: after 4 wks; SARM‐2f 1, 3, 10 mg/kg daily p.o.; TE 2 mg/kg every 2 wks; vs vehicle
Protocol: (§3) The monkeys were divided into five groups by weight randomization (MiTOX system ver2.0, Mitsui E & S Systems Research Inc) on the last day of the habituation period. SARM‐2f was orally administered at daily doses of 1, 3, or 10 mg/kg for 4 weeks between 9:00 and 11:00 hours, using 0.5% w/v methylcellulose as the vehicle. TE was injected intramuscularly on Day 0 and Day 13; the dosing start was set at Day 0 at a dose of 2 mg/kg using sesame oil as the vehicle. The route of administration and dose of TE was selected according to the route and dose mentioned in the clinical indications. BW was measured every week before dosing (between 8:30 and 9:00 hours), and LBM was measured every 2 weeks after dosing and before feeding (between 11:30 and 14:30 hours) using an X‐ray bone density measuring device (Discovery, HOLOGIC USA). Blood collection for lipid profiles was conducted on the day after the completion of the four‐week multiple administration of SARM‐2f or TE. Plasma levels of total cholesterol (T‐chol), HDL‐c, low‐density lipoprotein cholesterol (LDL‐c), triglyceride (TG), alanine aminotransferase (ALT), and […] (AST) were measured by an automatic JCA‐BM8 analysis system (JEOL Ltd.). Plasma lipoprotein (a) (Lp (a)) levels were measured using a multiplate absorbance measuring system (Multiscan Ascent, Thermo Fisher Scientific KK).
as §2

[2] = Plasma lipid levels after 4-week treatment; format: in vivo, cynomolgus monkey; conditions: after 4 wks; SARM‐2f 1, 3, 10 mg/kg daily p.o.; TE 2 mg/kg every 2 wks; vs vehicle
Protocol: as §3, with “KK). […]” for “KK).”

[3] = TE intramuscular 20 mg/kg, monkeys, cited from earlier work

SMILES | EC50 (cynomolgus monkey AR) [nM] | maximal AR activation (cynomolgus monkey AR; monkey AR, at 1 μmol/L, 1 μmol/L DHT = 100%) [%] | Emax (human AR) [%] | EC50 (rat AR) [nM] | Emax (rat AR; COS-7, read-out: maximal activation) [%] | Blood level of ALT [1] | Blood level of AST [1] | Blood level of HDL‐c [2] | Blood level of LDL‐c [2] | Blood level of TG [2] | Blood level of T‐chol [2] | Lp (a) protein level [2] | effect on BW ([3]; within 4 weeks) | blood testosterone nadir levels [3]
C[C@](O)(COc1ccc(C#N)cc1)C(=O)Nc1ccc(C#N)c(C(F)(F)F)c1 [ostarine, reference compound] | 2.2 | 126 | 141 | 2.5 | 112 |  |  |  |  |  |  |  |  | 
CCCCCCC(=O)O[C@H]1CC[C@H]2[C@@H]3CCC4=CC(=O)CC[C@]4(C)[C@H]3CC[C@]12C [TE, Testosterone enanthate, reference compound] |  |  |  |  |  | not changed | not changed | did not affect | increase the LDL‐c level significantly | did reduce the TG level | did not affect | did not affect | significantly increasing the BW | approximately 1500 ng/dL
